Strand notation (5' to 3'): a small letter for the sugar, then the base; units joined by * are phosphorothioate-linked, units joined directly phosphodiester-linked; [ ] holds rarer units or linkages, { } end groups; capitals alone tell only the bases. k = constrained ethyl (cEt); [5mC] = 5-methylcytosine; d = 2'-deoxy (DNA)
Experiments:
[1] = system: Yap1 mRNA; assay: Antisense inhibition of human Yap1 in A-431 cells by cEt gapmers, single dose (Example 1, RTS4814); format: cell-based
How it was run: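 Free uptake of 2,000 nM 3-10-3 cEt gapmer (16-mer, full phosphorothioate, 5-methylcytosines) in A-431 cells for ~48 h. Yap1 mRNA quantified by qRT-PCR with set RTS4814, normalized to total RNA (RiboGreen), and expressed as % of untreated control; asterisked values target the amplicon region.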

[2] = system: Yap1 mRNA; assay: Antisense inhibition of human Yap1 in A-431 cells by cEt gapmers, single dose (Example 3, RTS36584); format: cell-based; details: Table 8; A-431 cells, 5,000 cells per well, free uptake, 2,000 nM, approximately 48 hours; RTS36584; normalized to RIBOGREEN; Yap1 mRNA relative to untreated control cells
How it was run: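 Values are % untreated control: Yap1 mRNA by quantitative RT-PCR (RTS36584), normalized to total RNA by RiboGreen. Before RNA isolation, 5,000 A-431 cells per well were exposed ~48 h to 2,000 nM 16-mer cEt gapmer, delivered without transfection reagent.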

[3] = A-431 cells, 5,000 cells per well, free uptake, 2,000 nM modified oligonucleotide, approx. 48 hours, RTS4814, normalized to RIBOGREEN, Table 3
[4] = Table 1, A-431 cells, free uptake, 2,000 nM, approximately 48 hours, RTS4814, Yap1 mRNA relative to untreated control cells
[5] = Table 2, A-431 cells, free uptake, 2,000 nM, approximately 48 hours, RTS4814, Yap1 mRNA relative to untreated control cells

Substance	YAP1 (% UTC) [1, 3]	also measured
715441 (antisense k[5mC]*kT*k[5mC]*dT*dG*dG*dT*dT*d[5mC]*dA*dT*dG*dG*k[5mC]*kA*kA) [Compound 715441]	57 % UTC	–
715453 (antisense kA*kG*kG*dT*dG*d[5mC]*d[5mC]*dA*d[5mC]*dT*dG*dT*dT*kA*kA*kG) [Compound 715453]	59 % UTC	–
715564 (k[5mC]*kA*kA*dG*d[5mC]*dA*d[5mC]*dA*d[5mC]*dA*dA*d[5mC]*dT*k[5mC]*kA*kG; antisense) [Compound 715564]	75 % UTC	–
715505 (antisense kA*kT*kT*dG*dG*dT*dT*dT*dA*dT*dT*dG*dT*kA*kA*kA) [Compound 715505]	–	YAP1 (% UTC) [1, 4]: 84 % UTC
715472 (antisense kT*kT*kT*dA*dT*d[5mC]*dT*dA*dG*d[5mC]*dT*dT*dG*kG*kT*kG) [Compound 715472]	–	YAP1 (% UTC) [1, 4]: 52 % UTC
715440 (antisense k[5mC]*kT*kG*dG*dT*dT*d[5mC]*dA*dT*dG*dG*d[5mC]*dA*kA*kA*kA) [Compound 715440]	–	YAP1 (% UTC) [1, 5]: 85 % UTC
715491 (antisense kA*kA*k[5mC]*d[5mC]*dA*dA*d[5mC]*dT*dA*dT*dT*dA*d[5mC]*kT*kT*k[5mC]) [Compound 715491]	–	YAP1 (% UTC) [1, 5]: 71 % UTC; YAP1 (% UTC) [2]: 8 % UTC
715540 (kT*kG*kA*dA*dG*dA*dA*d[5mC]*dT*dA*dT*dT*dT*k[5mC]*k[5mC]*kT; antisense) [Compound 715540]	82 % UTC	–
715524 (kA*k[5mC]*kT*dT*dT*dA*dA*dG*dA*dA*dG*dT*dA*kT*k[5mC]*kT; antisense) [Compound 715524]	–	YAP1 (% UTC) [1, 5]: 93 % UTC
715552 (kA*kA*kA*dT*dA*dG*dG*dA*dA*dG*dT*dT*dG*kT*kT*kG; antisense) [Compound 715552]	86 % UTC	–
715477 (antisense kA*kG*kA*d[5mC]*dA*d[5mC]*dA*dT*dA*d[5mC]*dT*d[5mC]*dT*kA*kG*kT) [Compound 715477]	61 % UTC	–
715456 (antisense kA*kG*kT*dG*dA*dT*dA*dG*dG*dT*dG*d[5mC]*d[5mC]*kA*k[5mC]*kT) [Compound 715456]	96 % UTC	–
